In patent US10881642B2, “Autophagy enhancer and use thereof” (Industry-Academic Cooperation Foundation, Yonsei University, priority 2016, dated 2021):

Tested on: ob/ob mice
Experiment: Metabolic profile of ob/ob mice
Assay type: in vivo
Description: FIG. 6A and FIG. 6B each indicates the fasting blood sugar and the body weights respectively from ob/ob mice which were treated with vehicle control or (50 mg/kg/2 days) for 8 weeks. FIG. 6C indicates the amount of feed intake from ob/ob mice which were treated with vehicle control or for 8 weeks. FIG. 6D and FIG. 6E each indicates the IPGTT results and AUC value measured after the 8 week administration. FIG. 6F and FIG. 6G indicates the ITT results and AUC value measured after the 8 week administration. FIG. 6H indicates the fasting blood sugar after the 8 week administration. FIG. 6I indicates the concentration of insulin after the 8 week administration. FIG. 6J indicate the result of HOMA-IR measured after the 8 week administration. FIG. 6K indicates the results the Insulinogenic index measured after the 8 week administration. Error bars, S.D. *, P<0.05; **, P<0.01; ***, P<0.001. Students t-test and one-way ANOVA.
FIG. 8A is the result of Hematoxylin-Eosin stained liver section from ob/ob mice treated with MSL compound or vehicle for 8 weeks. FIG. 8B is the result of measuring the concentration of TG using free glycerol reagent containing lipase in the lipid sample extracted using a mixture of chloroform/ethanol from the liver of ob/ob mice. FIG. 8C is the result of blood chemistry profile analyzed using chemical analyzer from serum sample obtained from ob/ob mice treated with MSL compound or vehicle for 8 weeks. FIG. 8D is the result of Hematoxylin-Eosin stained white adipose tissue section from ob/ob mice treated with MSL compound or vehicle for 8 weeks. FIG. 8E is the immuno-stained result of F4/80+ cells from white adipose tissue (left) and the quantification result of adipose cell F4/80+ CLS (right) indicated as a frequency of CLS (crown-like structures) in the white adipose tissue of the mice as described above. FIG. 8F is the result of quantifying the expression of WAT gene from the mice as described above using RT-PCR. Error bars, S.D. *, P<0.05; **, P<0.01; ***, P<0.001.
FIG. 11A is the result of fasting glucose concentration of ob/ob mice administered with vehicle control or MSL-7 (50 mg/kg/2 days) for 8 weeks. FIG. 11B is the body weight monitored of the mice of FIG. 11A. FIG. 11C is the result of experiments performed at 8 weeks after the administration of IPGTT (FIG. 1 IC) and ITT (FIG. 11D). FIG. 11E is the results of measuring blood chemistry profile of the ob/ob mice administered with vehicle control or MSL-7 compound for 8 weeks using chemical analyzer. Error bars, S.D. *, P<0.05; **, P<0.01; ***, P<0.001. Students t-test and one-way ANOVA. […]
We next studied whether MSL can activate autophagic flux in vivo. When we administered MSL after pretreatment with leupeptin (Ueno, T et al. (1991) Membrane markers of endoplasmic reticulum preserved in autophagic vacuolar membranes isolated from leupeptin-administered rat liver. J Biol Chem 266, 18995-18999), LC3-I to -II conversion was increased in the liver, supporting that MSL can increase autophagic flux in vivo. We next studied whether MSL administration can improve metabolic profile associated with obesity. We treated ob/ob mice with MSL at 50 mg/kg for 8 weeks.

COc1oc(-c2ccccc2Cl)nc1S(=O)(=O)c1ccccc1 [MSL-7, 2-(2-chlorophenyl)-5-methoxy-4-(phenylsulfonyl) oxazole]
body weight (50 mg/kg, 8 weeks): without significant effect on body weight | non-fasting blood glucose level (50 mg/kg, 8 weeks): significantly improved | glucose tolerance (IPGTT) (8 weeks): significantly improved | insulin sensitivity (ITT) (8 weeks): significantly improved

CSc1oc(-c2ccccc2)nc1S(=O)(=O)c1ccc(F)cc1 [MSL]
Food intake (50 mg/kg, 8 weeks): not affected | body weight (50 mg/kg, 8 weeks): not affected | non-fasting blood glucose level (50 mg/kg, 8 weeks): significantly decreased | AUC of IPGTT and ITT (8 weeks): reduced | Fasting blood glucose levels (8 weeks): significantly improved | HOMA-IR index (8 weeks): slightly decreased | Serum ALT/ASL levels (8 weeks): significantly reduced | glucose tolerance (IPGTT) (8 weeks): significant improvement | insulin sensitivity (ITT) (8 weeks): significant improvement | number of crown-like structures (CLSs) in WAT (8 weeks): significantly decreased | accumulation of lipid droplets in the liver (8 weeks, H&E): apparently reduced | expression of inflammatory markers (Tnfa, I-16, II-1β, F4/80), real-time RT-PCR (WAT, 8 weeks): significantly reduced | liver lipid content (Oil Red O staining) (data not shown): decreased
